From US4160829A, “Antibacterial 1,2,4-oxadiazolylacetamido cephalosporins” (Gist-Brocades N.V., priority 1972, dated 1979)
In brackets after ≈: the same amount, converted by molar mass. Like-named read-outs stand apart in the source and are kept apart here.

How the values were obtained:
Staph.aureus A 321 = experiment: agar serial dilution test; format: cell-based, Staphylococcus aureus; conditions: Staphylococcus aureus, read-out: minimal inhibitory concentration (MIC)
Haem.infl. A 1030 = experiment: micro serial dilution test; format: cell-based; conditions: read-out: minimal inhibitory concentration (MIC)
Pseud.aerug. 2396 = experiment: agar serial dilution test; format: cell-based; conditions: read-out: minimal inhibitory concentration (MIC)
Past.multo. A 723 = experiment: agar serial dilution test; format: cell-based, Pasteurella multocida; conditions: Pasteurella multocida, read-out: minimal inhibitory concentration (MIC)
Staph.aureus A 2001 [1] = experiment: micro serial dilution test; format: cell-based, Staphylococcus aureus; conditions: Staphylococcus aureus, micro serial dilution (in brackets), about 18 hours, 30° C. or 37° C., read-out: minimal inhibitory concentration (MIC)
Staph.aureus A 355 [2] = experiment: micro serial dilution test; format: cell-based, Staphylococcus aureus; conditions: Staphylococcus aureus, A355; micro serial dilution (in brackets), about 18 hours, 30° C. or 37° C.; penicillinase-producing strain; read-out: minimal inhibitory concentration (MIC)
Source text: Two drops of a stock solution of the test compound (antibiotic) in a known concentration were brought into the first hole of a test plate with 9 numbered holes with a sterile Pasteur pipette. After rinsing this pipette three times with a physiological NaCl-solution, two drops of a stock solution of the test organism in a culture medium were brought in all the holes except for hole 8. In the first hole, the solution of the tested compound had been half diluted, then by stirring the liquid in the first hole and adding two drops of this mixture to the second hole and so on until hole 8, dilutions of the test compound solution were obtained in geometrical progression. The hole 9 contained no antibiotic and served for checking the growth of the testogranism in a blank medium. The test plate was incubated at 30° C. or 37° C. for about 18 hours.
^1 Penicillinase-producing strain

Salm.dubl. P 43 = experiment: agar serial dilution test; format: cell-based, Salmonella dublin; conditions: Salmonella enterica, read-out: minimal inhibitory concentration (MIC)
Staph.aureus A 2000 [3] = experiment: agar serial dilution test; format: cell-based, Staphylococcus aureus; conditions: Staphylococcus aureus, read-out: minimal inhibitory concentration (MIC)
Salm.typh. R 127 = experiment: agar serial dilution test; format: cell-based; conditions: 24 h, 37° C., read-out: minimal inhibitory concentration (MIC)
Prot.rettg. A 821 = experiment: agar serial dilution test; format: cell-based, Proteus rettgeri; conditions: Providencia rettgeri, read-out: minimal inhibitory concentration (MIC)
Prot.mirab. H 3 = experiment: agar serial dilution test; format: cell-based, Proteus mirabilis; conditions: Proteus mirabilis
Staph.aureus A 2000 [4] = experiment: micro serial dilution test; format: cell-based, Staphylococcus aureus; conditions: Staphylococcus aureus, A2000, 18 h, micro serial dilution (in brackets), about 18 hours, 30° C. or 37° C.; read-out: minimal inhibitory concentration (MIC)
Prot.morg. 2241 = experiment: agar serial dilution test; format: cell-based; conditions: read-out: minimal inhibitory concentration (MIC)
Kleb.pneum. A 809 = experiment: agar serial dilution test; format: cell-based, Klebsiella pneumoniae; conditions: Klebsiella pneumoniae, read-out: minimal inhibitory concentration (MIC)
Pseud.aerug. H 10 = experiment: agar serial dilution test; format: cell-based; conditions: read-out: minimal inhibitory concentration (MIC)
[5] = tested on: Pseud.aerug. Wyeth A 1058; experiment: agar serial dilution test; format: cell-based; conditions: read-out: minimal inhibitory concentration (MIC)
Prot.mirab. L 93 = experiment: agar serial dilution test; format: cell-based, Proteus mirabilis; conditions: Proteus mirabilis
Staph.aureus A 2001 [6] = experiment: agar serial dilution test; format: cell-based, Staphylococcus aureus; conditions: Staphylococcus aureus, A2001, 24 h, agar serial dilution, 24 hours, 37° C.; read-out: minimal inhibitory concentration (MIC)
Prot.mirab. A 1200 = experiment: agar serial dilution test; format: cell-based, Proteus mirabilis; conditions: Proteus mirabilis, 24 h, agar serial dilution, 24 hours, 37° C.; read-out: minimal inhibitory concentration (MIC)
Bac.Subt.ATCC 6633 = experiment: agar serial dilution test; format: cell-based, Bacillus subtilis; conditions: Bacillus subtilis, read-out: minimal inhibitory concentration (MIC)
Strep. faec. L 80 = experiment: agar serial dilution test; format: cell-based, Streptococcus faecalis; conditions: Enterococcus faecalis, read-out: minimal inhibitory concentration (MIC)
Bruc.melit. A 488 = experiment: microbe, parasite or virus in culture; format: cell-based; conditions: Brucella melitensis, 24 h, read-out: minimal inhibitory concentration (MIC)
Shig.equir. T 3 = experiment: agar serial dilution test; format: cell-based; conditions: 37° C., read-out: minimal inhibitory concentration (MIC)
Esch.coli U 20 = experiment: agar serial dilution test; format: cell-based, Escherichia coli; conditions: Escherichia coli
Dipl.pneum. L 54 = experiment: agar serial dilution test; format: cell-based, Diplococcus pneumoniae; conditions: Streptococcus pneumoniae, read-out: minimal inhibitory concentration (MIC)
Staph.aureus A 355 [7] = experiment: agar serial dilution test; conditions: Staphylococcus aureus, A355, 24 h
Strep.haem. A 266 = experiment: agar serial dilution test; format: cell-based, Streptococcus haemolyticus; conditions: Streptococcus, read-out: minimal inhibitory concentration (MIC)
[8] = A321, 24 h, agar serial dilution, 24 hours, 37° C.
[9] = 18 h, micro serial dilution (in brackets), about 18 hours, 30° C. or 37° C.
[10] = agar serial dilution, 24 hours, 37° C.
[11] = A2000, 24 h, agar serial dilution, 24 hours, 37° C.
[12] = 24 h, agar serial dilution, 24 hours, 37° C.
[13] = agar serial dilution, 24 hours, 37° C., read-out: minimal inhibitory concentration (MIC)
[14] = 24 h, read-out: minimal inhibitory concentration (MIC), agar serial dilution, 24 hours, 37° C.
[15] = ATCC6633, 24 h, agar serial dilution, 24 hours, 37° C.
[16] = U20, agar serial dilution, 24 hours, 37° C., read-out: minimal inhibitory concentration (MIC)
[17] = read-out: minimal inhibitory concentration (MIC), agar serial dilution, 24 hours, 37° C., penicillinase-producing strain
[18] = 24 h, agar serial dilution, 24 hours, 37° C., read-out: minimal inhibitory concentration (MIC)
[19] = read-out: minimal inhibitory concentration (MIC)

Row | SMILES | MIC (Staph.aureus A 321; [8]) | MIC (Haem.infl. A 1030; [9]) | MIC (Pseud.aerug. 2396; [10]) | MIC (Past.multo. A 723; [10]) | MIC (Staph.aureus A 355 [2]) | MIC (Salm.dubl. P 43; [10]) | MIC (Staph.aureus A 2000 [3]; [11]) | MIC (Prot.rettg. A 821; [12]) | MIC (Prot.mirab. H 3; [13]) | MIC (Prot.morg. 2241; [12]) | MIC (Kleb.pneum. A 809; [10]) | MIC (Pseud.aerug. H 10; [10]) | MIC [5, 10] | MIC (Prot.mirab. A 1200) | MIC (Bac.Subt.ATCC 6633; [15]) | MIC (Strep. faec. L 80; [10]) | MIC (Bruc.melit. A 488) | MIC (Shig.equir. T 3; 24 h) | MIC (Esch.coli U 20; [16]) | MIC (Dipl.pneum. L 54; [10]) | also measured
1 | Cc1noc(C(C(=O)N[C@@H]2C(=O)N3[C@@H]2SC(C)(C)[C@@H]3C(=O)O)c2ccccc2)n1 (mixture of isomers) [Example 6, sodium DL-6-{[α-phenyl-3-methyl-1,2,4-oxadiazol-5-yl-]-acetamido}-penicillanate] | 0.25 µg/mL | 1.2 µg/mL | > 100 µg/mL | 1 µg/mL | 125 µg/mL | 100 µg/mL | 1.5 µg/mL | 3 µg/mL | 100 µg/mL | > 100 µg/mL | 100 µg/mL | > 100 µg/mL | > 100 µg/mL | 100 µg/mL | 0.03 µg/mL | 1 µg/mL | 1 µg/mL | 12.5 µg/mL | 100 µg/mL | 0.06 µg/mL | MIC (Staph.aureus A 2001 [1]; A2001, 18 h): 2.5 µg/mL; MIC (Salm.typh. R 127): > 100 µg/mL; MIC (Staph.aureus A 2000 [4]): 23 µg/mL; MIC (Prot.mirab. L 93; [14]): 12.5 µg/mL; MIC (Staph.aureus A 2001 [6]): 1 µg/mL; MIC (Staph.aureus A 355 [7]; [17]): 25 µg/mL
2 | CC(=O)OCC1=C(C(=O)O)N2C(=O)[C@@H](NC(=O)Cc3ccccc3)[C@H]2SC1 [Cephalosporin G, reference compound] |  |  | > 100 µg/mL | 1 µg/mL (≈ 2.56 µM) | 1.8 µg/mL (≈ 4.61 µM) | 6 µg/mL (≈ 15.4 µM) |  |  |  |  | 1 µg/mL (≈ 2.56 µM) | > 100 µg/mL | > 100 µg/mL |  |  | 25 µg/mL (≈ 64 µM) | 2 µg/mL (≈ 5.12 µM) | 25 µg/mL (≈ 64 µM) |  | 0.06 µg/mL (≈ 0.154 µM) | MIC (Strep.haem. A 266; [10]): 0.03 µg/mL (≈ 0.0768 µM); MIC (Staph.aureus A 321; A321, agar serial dilution, 24 hours, 37° C.): 1.5 µg/mL (≈ 3.84 µM); MIC (Haem.infl. A 1030; micro serial dilution (in brackets), about 18 hours, 30° C. or 37° C.): 125 µg/mL (≈ 320 µM); MIC (Staph.aureus A 2001 [1]; A2001): 0.9 µg/mL (≈ 2.31 µM); MIC (Staph.aureus A 2000 [3]; A2000, agar serial dilution, 24 hours, 37° C.): 1.5 µg/mL (≈ 3.84 µM); MIC (Prot.rettg. A 821; [10]): 25 µg/mL (≈ 64 µM); MIC (Prot.mirab. H 3; [18]): 25 µg/mL (≈ 64 µM); MIC (Prot.morg. 2241; [10]): > 100 µg/mL; MIC (Prot.mirab. L 93; [18]): 2 µg/mL (≈ 5.12 µM); MIC (Bac.Subt.ATCC 6633; ATCC6633, agar serial dilution, 24 hours, 37° C.): 0.09 µg/mL (≈ 0.231 µM); MIC (Esch.coli U 20; U20, 24 h, agar serial dilution, 24 hours, 37° C., read-out: minimal inhibitory concentration (MIC)): 50 µg/mL (≈ 128 µM); MIC (Staph.aureus A 355 [7]; [19]): 1.5 µg/mL (≈ 3.84 µM)
3 | CC(=O)OCC1=C(C(=O)O)N2C(=O)[C@@H](NC(=O)Cc3nc(-c4c(C)cc(C)cc4C)no3)[C@H]2SC1 [Example 9, 7-{[3-(2,4,6-trimethylphenyl)-1,2,4-oxadiazol-5-yl]-acetamido}-cephalosporanic acid] | 0.12 µg/mL (≈ 0.24 µM) | 125 µg/mL (≈ 250 µM) | > 100 µg/mL | 50 µg/mL (≈ 99.9 µM) | 0.15 µg/mL (≈ 0.3 µM) | > 100 µg/mL | 1 µg/mL (≈ 2 µM) | > 100 µg/mL | > 100 µg/mL | > 100 µg/mL | 50 µg/mL (≈ 99.9 µM) | > 100 µg/mL | > 100 µg/mL | > 100 µg/mL | 0.06 µg/mL (≈ 0.12 µM) | 6 µg/mL (≈ 12 µM) | 100 µg/mL (≈ 200 µM) | > 100 µg/mL | > 100 µg/mL | 0.25 µg/mL (≈ 0.499 µM) | MIC (Strep.haem. A 266; [10]): 0.03 µg/mL (≈ 0.0599 µM); MIC (Staph.aureus A 2001 [1]; A2001, 18 h): 0.11 µg/mL (≈ 0.22 µM); MIC (Prot.mirab. L 93; [13]): > 100 µg/mL; MIC (Staph.aureus A 355 [7]; [17]): 1 µg/mL (≈ 2 µM)
4 | Cc1nc(CC(=O)N[C@@H]2C(=O)N3[C@@H]2SC(C)(C)[C@@H]3C(=O)O)no1 [Example 13, Sodium 6-[(5-methyl-1,2,4-oxadiazol-3-yl)-acetamido]-penicillanate] | 0.12 µg/mL | 125 µg/mL |  | 1 µg/mL |  | 3 µg/mL | 1.5 µg/mL | 6 µg/mL | 100 µg/mL | 100 µg/mL | > 100 µg/mL | > 100 µg/mL | > 100 µg/mL | 25 µg/mL | 0.03 µg/mL | 6 µg/mL | 3 µg/mL | 3 µg/mL | 50 µg/mL | 1 µg/mL | MIC (Strep.haem. A 266; [10]): 0.03 µg/mL; MIC (Salm.typh. R 127): 25 µg/mL; MIC (Prot.mirab. L 93; [13]): 3 µg/mL; MIC (Staph.aureus A 2001 [6]): 1.5 µg/mL; MIC (Staph.aureus A 355 [7]; [17]): 10 µg/mL
5 | CC1=C(C(=O)O)N2C(=O)[C@@H](NC(=O)Cc3ccccc3)[C@H]2SC1 [benzyldesacetoxy ceph., reference compound] |  |  |  |  |  |  |  |  |  |  |  |  |  |  |  |  | 100 µg/mL (≈ 301 µM) |  |  |  | MIC (Strep.haem. A 266; 24 h): 1 µg/mL (≈ 3.01 µM); MIC (Staph.aureus A 321; A321, 24 h): 1 µg/mL (≈ 3.01 µM); MIC (Haem.infl. A 1030; 18 h): > 125 µg/mL; MIC (Pseud.aerug. 2396; 24 h): > 100 µg/mL; MIC (Past.multo. A 723; 24 h): 25 µg/mL (≈ 75.2 µM); MIC (Salm.dubl. P 43; 24 h): > 100 µg/mL; MIC (Staph.aureus A 2000 [3]; A2000, 24 h): 12.5 µg/mL (≈ 37.6 µM); MIC (Prot.rettg. A 821; 24 h): > 100 µg/mL; MIC (Prot.mirab. H 3; [14]): > 100 µg/mL; MIC (Prot.morg. 2241; 24 h): > 100 µg/mL; MIC (Kleb.pneum. A 809; 24 h): 100 µg/mL (≈ 301 µM); MIC (Pseud.aerug. H 10; 24 h): > 100 µg/mL; MIC ([5]; 24 h): > 100 µg/mL; MIC (Prot.mirab. L 93; [14]): 50 µg/mL (≈ 150 µM); MIC (Bac.Subt.ATCC 6633; ATCC6633, 24 h): 0.5 µg/mL (≈ 1.5 µM); MIC (Strep. faec. L 80; 24 h): > 100 µg/mL; MIC (Shig.equir. T 3; 24 hours): 100 µg/mL (≈ 301 µM); MIC (Esch.coli U 20; U20, 24 h, read-out: minimal inhibitory concentration (MIC), agar serial dilution, 24 hours, 37° C.): > 100 µg/mL; MIC (Dipl.pneum. L 54; 24 h): 3 µg/mL (≈ 9.03 µM); MIC (Staph.aureus A 355 [7]; [19]): 25 µg/mL (≈ 75.2 µM)
